Test results as given in BindingDB's records for doi:10.1016/j.bmc.2019.02.015 (2019).

Legend:
[1] = Inhibition of mouse GAT-2 expressed in HEK293 cells assessed as decrease in [3H]GABA uptake preincubated for 25 mins followed by [3H]GABA addition and measured after 10 mins by scintillation counting analysis
[2] = Inhibition of mouse GAT-3 expressed in HEK293 cells assessed as decrease in [3H]GABA uptake preincubated for 25 mins followed by [3H]GABA addition and measured after 4 mins by scintillation counting analysis

| IC50 [1] | IC50 [2] | Compound |
| --- | --- | --- |
| 17.8 µM | – | O=C(O)C1CCCN(CCON=Cc2cc(F)ccc2-c2ccc(Cl)cc2Cl)C1 (stereo unspecified) |
| 38 µM | 91.2 µM | O=C(O)C1CCCN(CCON=Cc2sccc2-c2ccc(Cl)cc2Cl)C1 (stereo unspecified) |
| 45.7 µM | – | O=C(O)C1CCCN(CCON=Cc2ccccc2-c2ccc(Cl)cc2Cl)C1 (stereo unspecified) |
| 42.7 µM | 57.5 µM | O=C(O)[C@@H]1CCCN(CCON=Cc2ccccc2-c2ccc(Cl)cc2Cl)C1 |
